Data from US20120083508A1, “ALPHA-2B RECEPTOR AGONIST AND ANTICONVULSANT COMPOSITIONS FOR TREATING CHRONIC PAIN” (ALLERGAN, INC., priority 2006, published 2012).

Experiments:
[1] = tested on: Chung rat model of chronic pain; assay: Chung rat model of chronic pain (allodynia reversal); type: in vivo; conditions: for PAIN REVERSAL: Compound No. 27 10 μg/kg given immediately after Gabapentin 10 mg/kg, rats; for pain relief when administered alone at the dose used in the combination: intraperitoneally, doses of Table 4 (No. 95 1 μg/kg, No. 27 10 μg/kg)
[2] = tested on: Chung rat model of chronic pain; assay: as above; type: in vivo; conditions: for PAIN REVERSAL: rats
Protocol: Gabapentin was administered intraperitoneally to rats at a minimally effective dose; that is, the compound was administered at a dose that, when administered alone, is the minimum dose required to relieve pain (this dose was calculated by finding, first, the dose that produced drug's maximum effect—that is, the dose that fully alleviated pain—and dividing that dose by three; the result is a dose that is slightly less than 50% of the dose that is required to produce the drug's maximum effect). The rats then immediately received one of two alpha-2B receptor agonists, Compound No. 95 and Compound No. 27, or received no additional compound, at all. […] Pain reversal was then assessed using the Chung rat model of chronic pain. The model is described by Kim and Chung, Pain, […], at 355-363 (1992) and in U.S. Pat. No. 7,091,232, both of which are incorporated by reference herein.
The right-hand column in Table 5 provides the P values showing statistical significance comparing the effect of the alpha-2B receptor agonist+Gabapentin to the effect of Gabapentin alone. The significance was determined using a 2-sided unpaired Student t test.
(§1) A minimal effect is typically <50% reversal of allodynia. Optimal effects are typically >80% reversal of allodynia. Gabapentin by itself is not fully effective so its peak effect is about 62% reversal of allodynia. An ineffective intraperitoneal (IP) Gabapentin dose is 3 mg/kg. A minimally effective dose is 10 mg/kg and its peak effect is achieved with 30 mg/kg. […] Locomotor activity is determined automatically by placing the rat in a digicom analyzer chamber (Omnitech Electronic). These chambers have photocells criss-crossing the box that are broken as the animal moves around. The computer analyses this movement and records total activity over 5-minute time periods.

locomotor activity = assay: Locomotor / exploratory activity in a novel chamber (digicom analyzer); type: in vivo, rat
Protocol: as §1

[3] = IP 1 ug/kg + Gabapentin 10 mg/kg

## NCC1(CC(=O)O)CCCCC1 [Gabapentin]
[1]; Gabapentin by itself, IP, peak effect achieved with 30 mg/kg
  peak effect, reversal of allodynia: about 62%
[1]; IP, 1 mg/kg, alone
  % Allodynia Reversal (30 min peak): 5.89 ± 1.3%
[1]; IP, alone
  dose at which peak effect is achieved: 30 mg/kg
  ineffective intraperitoneal (IP) dose: 3 mg/kg
[1]; IP, alone, minimal effect is <50% reversal of allodynia
  minimally effective dose: 10 mg/kg
[2]; Gabapentin 10 mg/kg intraperitoneally, alone
  PAIN REVERSAL: 45%
[2]; Gabapentin 10 mg/kg intraperitoneally, alone, listed as gabapentin
  PAIN REVERSAL: 45%
[2]; IP, 10 mg/kg, alone
  % Allodynia Reversal (30 min peak): 40.8 ± 9.3%
[2]; IP, 30 mg/kg, alone
  % Allodynia Reversal (30 min peak): 61.56 ± 5.7%
Locomotor activity; 100 mg/kg
  sedative effects (locomotor activity): significantly reduced locomotor activity
Locomotor activity; 100 mg/kg intraperitoneally 15 minutes before novel chamber, between 40-60 minutes after dosing
  reduction in exploratory activity compared to vehicle treated rats: > 50%

## C1=NC(CC2CCc3ccccc3C2)CN1 (stereo not drawn) [Compound 27]
[1]
  PAIN REVERSAL: 78%
[1]; listed as Compound No. 27
  PAIN REVERSAL: 78%
[1]; IP 10 ug/kg + Gabapentin 10 mg/kg
  % Allodynia Reversal (30 min peak): 77.50 ± 4.7%
[1]; IP, 10 ug/kg, alone
  % Allodynia Reversal (30 min peak): 43.75 ± 7.4%
[1]; IP, 30 ug/kg, alone
  % Allodynia Reversal (30 min peak): 74.59 ± 7.4%
[1]; IP, 100 ug/kg, alone
  % Allodynia Reversal (30 min peak): 90.86 ± 5.9%
[1]; alone
  pain relief when administered alone at the dose used in the combination: not effective in relieving pain

## OCCNC(=S)NCc1cccc(Cl)c1F [Compound 131]
[1]; IP, 1 ug/kg, alone
  % Allodynia Reversal (30 min peak): 3.92 ± 1.8%
[1]; IP, 3 ug/kg, alone
  % Allodynia Reversal (30 min peak): 54.67 ± 6.1%
[1]; IP, 10 ug/kg, alone
  % Allodynia Reversal (30 min peak): 85.24 ± 6.0%
[1]; IP, 30 ug/kg, alone
  % Allodynia Reversal (30 min peak): 90.04 ± 6.1%
[1]; IP, 100 ug/kg, alone
  % Allodynia Reversal (30 min peak): 95.31 ± 4.7%
[1]; IP, 300 ug/kg, alone
  % Allodynia Reversal (30 min peak): 91.7 ± 5.3%
[2]; [3]
  % Allodynia Reversal (30 min peak): 88.00 ± 5.4%

## C[C@@H](c1c[nH]c(=S)[nH]1)c1cccc2ncccc12 [Compound 95]
[1]; [3]
  % Allodynia Reversal (30 min peak): 75.46 ± 5.3%
[1]; PO, 1 ug/kg, alone
  % Allodynia Reversal (30 min peak): 1.52 ± 1.0%
[1]; PO, 3 ug/kg, alone
  % Allodynia Reversal (30 min peak): 58.21 ± 5.3%
[1]; PO, 10 ug/kg, alone
  % Allodynia Reversal (30 min peak): 78.43 ± 4.6%
[1]; PO, 30 ug/kg, alone
  % Allodynia Reversal (30 min peak): 81.53 ± 6.2%
[1]; PO, 100 ug/kg, alone
  % Allodynia Reversal (30 min peak): 81.26 ± 8.8%
[1]; alone
  pain relief when administered alone at the dose used in the combination: not effective in relieving pain
[2]; Compound No. 95 1 μg/kg given immediately after Gabapentin 10 mg/kg
  PAIN REVERSAL: 75%
